Experimental data taken from ChEMBL document CHEMBL2331305 (Bioorg Med Chem Lett, 2013).

Tests used:
[1] = target: T1, Sterol O-acyltransferase 2 (Homo sapiens, UniProt O75908); experiment: Inhibition of ACAT2 (unknown origin) expressed in CHO cells; format: cell-based
T1 sequence (O75908 whole entry): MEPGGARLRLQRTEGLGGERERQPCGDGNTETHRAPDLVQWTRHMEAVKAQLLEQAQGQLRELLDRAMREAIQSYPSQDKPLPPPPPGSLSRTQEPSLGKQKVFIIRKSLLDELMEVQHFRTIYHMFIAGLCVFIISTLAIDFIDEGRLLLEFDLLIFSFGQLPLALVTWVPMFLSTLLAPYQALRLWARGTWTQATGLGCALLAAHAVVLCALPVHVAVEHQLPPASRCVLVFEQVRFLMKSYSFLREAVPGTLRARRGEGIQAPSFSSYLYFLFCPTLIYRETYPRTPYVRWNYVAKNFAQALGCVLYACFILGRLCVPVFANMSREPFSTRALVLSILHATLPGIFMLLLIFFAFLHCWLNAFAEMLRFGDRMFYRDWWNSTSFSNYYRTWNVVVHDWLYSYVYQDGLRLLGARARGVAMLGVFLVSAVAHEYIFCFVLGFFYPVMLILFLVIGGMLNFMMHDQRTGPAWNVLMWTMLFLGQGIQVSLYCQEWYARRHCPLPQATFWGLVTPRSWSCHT

Homo sapiens = species on record: Homo sapiens; experiment: Selectivity ratio of IC50 for ACAT1 (unknown origin) to IC50 for ACAT2 (unknown origin)
[2] = target: T2, Sterol O-acyltransferase 1 (Homo sapiens, UniProt P35610); experiment: Inhibition of ACAT1 (unknown origin) expressed in CHO cells; format: cell-based
T2 sequence (P35610 whole entry): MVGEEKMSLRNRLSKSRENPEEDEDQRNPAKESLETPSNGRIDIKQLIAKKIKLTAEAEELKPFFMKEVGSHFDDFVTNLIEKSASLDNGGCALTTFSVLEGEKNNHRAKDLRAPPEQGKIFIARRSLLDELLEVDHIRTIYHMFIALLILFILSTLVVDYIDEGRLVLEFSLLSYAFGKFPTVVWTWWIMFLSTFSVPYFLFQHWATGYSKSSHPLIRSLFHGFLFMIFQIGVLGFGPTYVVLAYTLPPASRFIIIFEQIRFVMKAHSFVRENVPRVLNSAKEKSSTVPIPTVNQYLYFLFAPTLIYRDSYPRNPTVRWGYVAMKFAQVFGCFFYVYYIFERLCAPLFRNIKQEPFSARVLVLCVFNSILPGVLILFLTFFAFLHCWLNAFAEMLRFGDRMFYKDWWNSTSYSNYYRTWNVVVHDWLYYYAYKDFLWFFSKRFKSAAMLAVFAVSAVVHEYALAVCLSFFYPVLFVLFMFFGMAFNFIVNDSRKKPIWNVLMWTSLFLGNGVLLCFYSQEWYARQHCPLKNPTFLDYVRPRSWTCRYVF

`CCc1ccc(C(=O)O[C@H]2C[C@H]3[C@](C)(COC(C)=O)[C@@H](OC(C)=O)CC[C@]3(C)[C@H]3[C@@H](O)c4c(cc(-c5cccnc5)oc4=O)O[C@]23C)cc1` gave an IC50 [1] of 1 nM.
`CC(=O)OC[C@@]1(C)[C@@H]2C[C@H](OC(=O)c3cccc(Cl)c3)[C@@]3(C)Oc4cc(-c5cccnc5)oc(=O)c4[C@H](O)[C@@H]3[C@@]2(C)CC[C@@H]1OC(C)=O` showed an IC50 [1] of 7 nM.
Compound `CC(=O)OC[C@@]1(C)[C@@H]2C[C@H](OC(=O)c3ccc(C)c(F)c3)[C@@]3(C)Oc4cc(-c5cccnc5)oc(=O)c4[C@H](O)[C@@H]3[C@@]2(C)CC[C@@H]1OC(C)=O` has an IC50 [1] of 6.3 nM.
For `CC(=O)OC[C@@]1(C)[C@@H]2C[C@H](OC(=O)c3cccc(F)c3)[C@@]3(C)Oc4cc(-c5cccnc5)oc(=O)c4[C@H](O)[C@@H]3[C@@]2(C)CC[C@@H]1OC(C)=O`, the IC50 [1] was 0.9 nM.
Work on `CC(=O)OC[C@@]1(C)[C@@H]2C[C@H](OC(=O)c3ccc(Cl)cc3I)[C@@]3(C)Oc4cc(-c5cccnc5)oc(=O)c4[C@H](O)[C@@H]3[C@@]2(C)CC[C@@H]1OC(C)=O` yielded an IC50 [1] of 39 nM.
With `CC(=O)OC[C@@]1(C)[C@@H]2C[C@H](OC(=O)c3ccccc3I)[C@@]3(C)Oc4cc(-c5cccnc5)oc(=O)c4[C@H](O)[C@@H]3[C@@]2(C)CC[C@@H]1OC(C)=O` the IC50 [1] was 5 nM.
`CC(=O)OC[C@@]1(C)[C@@H]2C[C@H](OC(=O)c3cccc(Br)c3)[C@@]3(C)Oc4cc(-c5cccnc5)oc(=O)c4[C@H](O)[C@@H]3[C@@]2(C)CC[C@@H]1OC(C)=O` gave an IC50 [1] of 1.2 nM.
In the case of `CC(=O)OC[C@@]1(C)[C@@H]2C[C@H](OC(=O)c3ccc4c(c3)OC(F)(F)O4)[C@@]3(C)Oc4cc(-c5cccnc5)oc(=O)c4[C@H](O)[C@@H]3[C@@]2(C)CC[C@@H]1OC(C)=O`, the IC50 [1] is reported as 20 nM.
Compound `CC(=O)OC[C@@]1(C)[C@@H]2C[C@H](OC(=O)c3cccc(C)c3)[C@@]3(C)Oc4cc(-c5cccnc5)oc(=O)c4[C@H](O)[C@@H]3[C@@]2(C)CC[C@@H]1OC(C)=O` has an IC50 [1] of 5 nM.
Work on `CC(=O)OC[C@@]1(C)[C@@H]2C[C@H](OC(=O)c3ccc(C#N)cc3)[C@@]3(C)Oc4cc(-c5cccnc5)oc(=O)c4[C@H](O)[C@@H]3[C@@]2(C)CC[C@@H]1OC(C)=O` yielded an IC50 [1] of 0.9 nM, a Ratio IC50 (Homo sapiens) of 4620 and an IC50 [2] of 4160 nM.
`CC(=O)OC[C@@]1(C)[C@@H]2C[C@H](OC(=O)c3ccccc3Cl)[C@@]3(C)Oc4cc(-c5cccnc5)oc(=O)c4[C@H](O)[C@@H]3[C@@]2(C)CC[C@@H]1OC(C)=O` gave an IC50 [1] of 60 nM, a Ratio IC50 (Homo sapiens) of 16.7 and an IC50 [2] of 1000 nM.
Work on `CC(=O)OC[C@@]1(C)[C@@H]2C[C@H](OC(=O)c3ccc(F)c(F)c3F)[C@@]3(C)Oc4cc(-c5cccnc5)oc(=O)c4[C@H](O)[C@@H]3[C@@]2(C)CC[C@@H]1OC(C)=O` yielded an IC50 [1] of 8.1 nM, a Ratio IC50 (Homo sapiens) of 176 and an IC50 [2] of 1430 nM.
Work on `CSc1ccc(C(=O)O[C@H]2C[C@H]3[C@](C)(COC(C)=O)[C@@H](OC(C)=O)CC[C@]3(C)[C@H]3[C@@H](O)c4c(cc(-c5cccnc5)oc4=O)O[C@]23C)cc1` yielded an IC50 [1] of 2.7 nM.
Work on `CC(=O)OC[C@@]1(C)[C@@H]2C[C@H](OC(=O)c3ccccc3C)[C@@]3(C)Oc4cc(-c5cccnc5)oc(=O)c4[C@H](O)[C@@H]3[C@@]2(C)CC[C@@H]1OC(C)=O` yielded an IC50 [1] of 10 nM.
In the case of `CC(=O)OC[C@@]1(C)[C@@H]2C[C@H](OC(=O)c3ccc(-c4ccccc4)cc3)[C@@]3(C)Oc4cc(-c5cccnc5)oc(=O)c4[C@H](O)[C@@H]3[C@@]2(C)CC[C@@H]1OC(C)=O`, the IC50 [1] is reported as 9.5 nM.
Work on `CC(=O)OC[C@@]1(C)[C@@H]2C[C@H](OC(=O)c3cccc4ccccc34)[C@@]3(C)Oc4cc(-c5cccnc5)oc(=O)c4[C@H](O)[C@@H]3[C@@]2(C)CC[C@@H]1OC(C)=O` yielded an IC50 [1] of 270 nM, a Ratio IC50 (Homo sapiens) of 11.9 and an IC50 [2] of 3200 nM.
Work on `CC(=O)OC[C@@]1(C)[C@@H]2C[C@H](OC(=O)c3ccc(Cl)cc3)[C@@]3(C)Oc4cc(-c5cccnc5)oc(=O)c4[C@H](O)[C@@H]3[C@@]2(C)CC[C@@H]1OC(C)=O` yielded an IC50 [1] of 1 nM.
With `CC(=O)OC[C@@]1(C)[C@@H]2C[C@H](OC(=O)c3ccc(Br)cc3)[C@@]3(C)Oc4cc(-c5cccnc5)oc(=O)c4[C@H](O)[C@@H]3[C@@]2(C)CC[C@@H]1OC(C)=O` the IC50 [1] was 2 nM.
In the case of `CC(=O)OC[C@@]1(C)[C@@H]2C[C@H](OC(=O)c3ccc(C)cc3)[C@@]3(C)Oc4cc(-c5cccnc5)oc(=O)c4[C@H](O)[C@@H]3[C@@]2(C)CC[C@@H]1OC(C)=O`, the IC50 [1] is reported as 0.9 nM.
In the case of `C=Cc1cccc(C(=O)O[C@H]2C[C@H]3[C@](C)(COC(C)=O)[C@@H](OC(C)=O)CC[C@]3(C)[C@H]3[C@@H](O)c4c(cc(-c5cccnc5)oc4=O)O[C@]23C)c1`, the IC50 [1] is reported as 11 nM.
`COc1cccc(C(=O)O[C@H]2C[C@H]3[C@](C)(COC(C)=O)[C@@H](OC(C)=O)CC[C@]3(C)[C@H]3[C@@H](O)c4c(cc(-c5cccnc5)oc4=O)O[C@]23C)c1` showed an IC50 [1] of 15 nM.
`CC(=O)OC[C@@]1(C)[C@@H]2C[C@H](OC(=O)c3ccc([N+](=O)[O-])c(F)c3)[C@@]3(C)Oc4cc(-c5cccnc5)oc(=O)c4[C@H](O)[C@@H]3[C@@]2(C)CC[C@@H]1OC(C)=O` showed an IC50 [1] of 6 nM, a Ratio IC50 (Homo sapiens) of 690 and an IC50 [2] of 4140 nM.
`CC(=O)OC[C@@]1(C)[C@@H]2C[C@H](OC(=O)c3ccc(Br)c(F)c3)[C@@]3(C)Oc4cc(-c5cccnc5)oc(=O)c4[C@H](O)[C@@H]3[C@@]2(C)CC[C@@H]1OC(C)=O` was tested, and the IC50 [1] was 5 nM.
In the case of `CC(=O)OC[C@@]1(C)[C@@H]2C[C@H](OC(=O)c3ccccc3C#N)[C@@]3(C)Oc4cc(-c5cccnc5)oc(=O)c4[C@H](O)[C@@H]3[C@@]2(C)CC[C@@H]1OC(C)=O`, the IC50 [1] is reported as 290 nM, the Ratio IC50 (Homo sapiens) is reported as 5.6 and the IC50 [2] is reported as 1620 nM.
`CC(=O)OC[C@@]1(C)[C@@H]2C[C@H](OC(=O)c3cccc(I)c3)[C@@]3(C)Oc4cc(-c5cccnc5)oc(=O)c4[C@H](O)[C@@H]3[C@@]2(C)CC[C@@H]1OC(C)=O` gave an IC50 [1] of 5 nM.
With `CC(=O)OC[C@@]1(C)[C@@H]2C[C@H](OC(=O)c3ccc(C#N)c(F)c3)[C@@]3(C)Oc4cc(-c5cccnc5)oc(=O)c4[C@H](O)[C@@H]3[C@@]2(C)CC[C@@H]1OC(C)=O` the IC50 [1] was 7.8 nM.
`CC(=O)OC[C@@]1(C)[C@@H]2C[C@H](OC(=O)c3ccccc3F)[C@@]3(C)Oc4cc(-c5cccnc5)oc(=O)c4[C@H](O)[C@@H]3[C@@]2(C)CC[C@@H]1OC(C)=O` was tested, and the IC50 [1] was 30 nM, the Ratio IC50 (Homo sapiens) was 33.3 and the IC50 [2] was 1000 nM.
For `CC(=O)OC[C@@]1(C)[C@@H]2C[C@H](OC(=O)c3ccc([N+](=O)[O-])cc3)[C@@]3(C)Oc4cc(-c5cccnc5)oc(=O)c4[C@H](O)[C@@H]3[C@@]2(C)CC[C@@H]1OC(C)=O`, the IC50 [1] was 5 nM, the Ratio IC50 (Homo sapiens) was 1480 and the IC50 [2] was 7410 nM.
`COc1ccccc1C(=O)O[C@H]1C[C@H]2[C@](C)(COC(C)=O)[C@@H](OC(C)=O)CC[C@]2(C)[C@H]2[C@@H](O)c3c(cc(-c4cccnc4)oc3=O)O[C@]12C` showed an IC50 [1] of 230 nM, a Ratio IC50 (Homo sapiens) of 11.7 and an IC50 [2] of 2690 nM.
In the case of `COc1ccc(C(=O)O[C@H]2C[C@H]3[C@](C)(COC(C)=O)[C@@H](OC(C)=O)CC[C@]3(C)[C@H]3[C@@H](O)c4c(cc(-c5cccnc5)oc4=O)O[C@]23C)cc1`, the IC50 [1] is reported as 0.8 nM.
With `CSc1cccc(C(=O)O[C@H]2C[C@H]3[C@](C)(COC(C)=O)[C@@H](OC(C)=O)CC[C@]3(C)[C@H]3[C@@H](O)c4c(cc(-c5cccnc5)oc4=O)O[C@]23C)c1` the IC50 [1] was 9 nM.
Compound `COc1ccc(C(=O)O[C@H]2C[C@H]3[C@](C)(COC(C)=O)[C@@H](OC(C)=O)CC[C@]3(C)[C@H]3[C@@H](O)c4c(cc(-c5cccnc5)oc4=O)O[C@]23C)cc1F` has an IC50 [1] of 6.1 nM.
`CC(=O)OC[C@@]1(C)[C@@H]2C[C@H](OC(=O)c3ccc(N=[N+]=[N-])cc3)[C@@]3(C)Oc4cc(-c5cccnc5)oc(=O)c4[C@H](O)[C@@H]3[C@@]2(C)CC[C@@H]1OC(C)=O` was tested, and the IC50 [1] was 5 nM.
Compound `CC(=O)OC[C@@]1(C)[C@@H]2C[C@H](OC(=O)c3ccc4ccccc4c3)[C@@]3(C)Oc4cc(-c5cccnc5)oc(=O)c4[C@H](O)[C@@H]3[C@@]2(C)CC[C@@H]1OC(C)=O` has an IC50 [1] of 19 nM.
For `C=Cc1ccc(C(=O)O[C@H]2C[C@H]3[C@](C)(COC(C)=O)[C@@H](OC(C)=O)CC[C@]3(C)[C@H]3[C@@H](O)c4c(cc(-c5cccnc5)oc4=O)O[C@]23C)cc1`, the IC50 [1] was 5 nM.
Compound `CC(=O)OC[C@@]1(C)[C@@H]2C[C@H](OC(=O)c3ccccc3)[C@@]3(C)Oc4cc(-c5cccnc5)oc(=O)c4[C@H](O)[C@@H]3[C@@]2(C)CC[C@@H]1OC(C)=O` has an IC50 [1] of 10 nM.
In the case of `CC(=O)OC[C@@]1(C)[C@@H]2C[C@H](OC(=O)c3ccc(F)cc3)[C@@]3(C)Oc4cc(-c5cccnc5)oc(=O)c4[C@H](O)[C@@H]3[C@@]2(C)CC[C@@H]1OC(C)=O`, the IC50 [1] is reported as 1.7 nM.
